Experimental data as given in US6790971B1, “19-Nor-steroids” (Aventis Pharma S.A., priority 1989, dated 2004).

Experiments:
[1] = system: MCF-7 mammary tumoral cells; experiment: Anti-proliferative activity upon the growth of MCF-7 cells (DNA measurement with DABA); format: cell-based; details: 6 days, inhibition of the increase of DNA, read-out: concentration which inhibited the growth of MCF7 to an extent of 50% (IC50)
Experimental: B. Anti-proliferative activity of the products of the invention upon the growth of MCF-7 mammary tumoral cells.
The MCF-7 strains were kept under culture in FCS(1) medium at 37° C. under a humid atmosphere containing 5% CO2 and the cells at subconfluence were harvested by trypsination (0.05% trypsine, 0.02% EDTA), then rinsed by gentle centrifugation. A sample of the cells in suspension was counted on Malassez cell.
The cells, resuspended in FCS medium, were seeded at a rate of 30,000 cells per pit in multi-pit plates (24 pits of 2.5 cm^2) and twenty four hours after seeding (DO), the product to be tested was added to the medium in ethanolic solution (final concentration in ethanol: 0.1%), at a concentration of 10^−12 to 10^−6 M, the control pits receiving the same concentration of ethanol. The media were renewed every 48 hours and at the end of the experiment (D6), the medium was sucked off and the cells were immediately fixed with 150 microliters of methanol to estimate the DNA. The anti-proliferative activity of the products was evaluated by their capacity to inhibit the increase of DNA.
The DNA was measured by a fluorimetric method employing DABA (3,5-diaminobenzoic acid) (2): 150 microliters of DABA were added to each of the pits and the plates were then incubated for 45 minutes at 56° C., then 2 ml of 1 N HCl were added. The fluorescence was measured with the aid of a fluorimeter (length of the exiting wave: 408 nm, length of the emitting wave: 501 nm). The quantity of DNA per pit was evaluated with reference to a standard scale obtained by treating a standard DNA from calf thymus under the same conditions.
The concentration in nM which inhibited the growth of MCF7 to an extent of 50% (IC50) was determined in the manner indicated below:
(1) The fetal calf serum (FCS) culture medium was prepared as follows: MEM medium (minimal essential medium) to which were added:
Non-essential amino acids (GIBCO),
Peni-strepto (100 U/ml penicillin, 0.1 mg/ml streptomycin),
Fetal calf serum containing no steroids (10% final concentration).
(2) Puzas and Goodman, Analytical Biochemistry, Vol. 86, pp. 50, 1978.

[2] = target: T1, Estrogenic Receptor of Mouse Uterus (Mus musculus, UniProt P19785); experiment: Relative affinity of the bond, estrogen receptor (tritiated estradiol displacement); format: binding; details: for Relative affinity of the bond (RAB), Oestrogen Receptors, 2 Hrs: incubation time 2 Hrs; for Relative affinity of the bond (RAB), Oestrogen Receptors, 2 Hrs / Relative affinity of the bond (RAB), Oestrogen Receptors, 5 Hrs: second part of the table; for Relative affinity of the bond (RAB), Oestrogen Receptors, 2 Hrs / Relative affinity of the bond (RAB), Oestrogen Receptors, 5 Hrs / Relative affinity of the bond (RAB), Oestrogen, 2 H / Relative affinity of the bond (RAB), Oestrogen, 6 H: RAB=100(CH)/(CX); for Relative affinity of the bond (RAB), Oestrogen Receptors, 5 Hrs: incubation time 5 Hrs; for affinity for the estrogen receptors: at the second time (incubation); for Relative affinity of the bond (RAB), Oestrogen, 2 H: incubation 2 H at 0° C.; for Relative affinity of the bond (RAB), Oestrogen, 6 H: incubation 6 H (second time)
T1 construct: their uteri were removed, then homogenized at 0° C; from tissue; host or cells: uterine cytosol (105,000 g supernatant) of immature female mice
T1 sequence (P19785 1-599): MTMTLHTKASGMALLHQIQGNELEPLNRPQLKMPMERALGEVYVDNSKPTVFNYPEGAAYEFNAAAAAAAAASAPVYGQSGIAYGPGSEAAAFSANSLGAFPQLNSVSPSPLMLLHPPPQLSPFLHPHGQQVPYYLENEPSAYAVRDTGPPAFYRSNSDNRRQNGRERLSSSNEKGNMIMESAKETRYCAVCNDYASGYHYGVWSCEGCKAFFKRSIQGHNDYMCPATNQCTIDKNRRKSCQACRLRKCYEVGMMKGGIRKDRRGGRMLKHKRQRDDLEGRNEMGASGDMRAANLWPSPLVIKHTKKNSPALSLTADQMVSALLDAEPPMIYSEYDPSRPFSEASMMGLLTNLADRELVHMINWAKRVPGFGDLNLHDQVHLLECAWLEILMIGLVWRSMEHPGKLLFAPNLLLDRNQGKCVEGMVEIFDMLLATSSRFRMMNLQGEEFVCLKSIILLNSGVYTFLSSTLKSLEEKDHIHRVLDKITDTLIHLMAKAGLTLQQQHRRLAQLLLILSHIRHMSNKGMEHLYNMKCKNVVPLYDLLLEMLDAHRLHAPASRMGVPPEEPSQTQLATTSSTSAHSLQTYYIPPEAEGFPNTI
Experimental: Estrogenic Receptor of Mouse Uterus:
Impuberal female mice aged from 18 to 21 days were killed and their uteri were removed, then homogenized at 0° C. with the aid of a Potter teflon-glass in a TS buffered solution (10 mM Tris, 0.25 M saccharose, HCL pH 7.4) (1 g of tissue for 25 ml of TS). The homogenate was ultracentrifuged (105,000 g×90 min) at 0° C. and aliquots of the supernatant were incubated at 0° C. or at 25° C. for a time (t) with a constant concentration (T) of tritiated estradiol in the presence of increasing concentrations (0-1000×10^−9 M) either of cold estradiol, or of the cold product to be tested. The concentration (B) of bound tritiated estradiol was measured in each incubate by the technique of adsorption on dextran carbon.
Calculation of the Relative Affinty of the Bond
The calculation of the Relative Affinity of the Bond (RAB) was identical for all the receptors. The following 2 curves were traced; the percentage of the bound tritiated hormone [formula]
was a function of the logarithm of the concentration of the cold reference hormone and [formula]
as a function of the logarithm of the concentration of the cold product tested.
One determined the straight line of the equation [formula]
The intersections of the straight line I50 and of the curves make it possible to evaluate the concentrations of the cold reference hormone (CH) and of the tested cold product (CX) which inhibit to an extend of 50% the binding of the tritiated hormone upon the receptor. The relative affinity of the bond (RAB) of the tested product is determined by the equation

Structure (SMILES) | IC50 [1] [nM] | Relative affinity of the bond (RAB), Oestrogen Receptors, 2 Hrs [2] | Relative affinity of the bond (RAB), Oestrogen Receptors, 5 Hrs [2] | affinity for the estrogen receptors [2] | Relative affinity of the bond (RAB), Oestrogen, 2 H [2] | Relative affinity of the bond (RAB), Oestrogen, 6 H [2]
CCCCN(C)C(=O)COCCCCCCOc1ccc([C@H]2C[C@]3(C)[C@@H](O)CC[C@H]3[C@@H]3CCc4cc(O)ccc4[C@H]32)cc1 [Example 83] | 0.007 | 3.3 | 29 | – | – | –
CCCCN(C)C(=O)CSCCCCCOc1ccc([C@H]2C[C@]3(C)[C@@H](OC(=O)CCC(=O)O)CC[C@H]3[C@@H]3CCc4cc(O)ccc4[C@H]32)cc1 [Example 96, Monobutanedioate of 11β-(4-(5-((2-(Butyl-Methylamino)-2-Oxoethyl)-Thio)-Pentyloxy)-Phenyl)δ^1,3,5(10)-Estratrien-3-ol-17 β-yl] | – | – | 16 | – | – | –
CCCCN(C)C(=O)CCCCCCCSc1ccc([C@H]2C[C@]3(C)[C@@H](O)CC[C@H]3[C@@H]3CCc4cc(O)ccc4[C@H]32)cc1 [Example 92, N-Butyl-8-(4-(δ^1,3,5(10)-Estratrien-3,17β-Diol-11 β-yl)-Phenyl-Thio)-N-Methyl-Octanamide] | 0.015 | 2.8 | 47 | marked affinity | – | –
CC(C)N(C)C(=O)COCCCCCCCC[C@H]1C[C@]2(C)[C@@H](O)CC[C@H]2[C@@H]2CCc3cc(O)ccc3[C@@H]12 [Example 71, [[8(3,17beta-dihydroxy-estra-1,3,5(10)-trien-11beta-yl)-octyl]-oxy]-N-methyl-N-(1-methylethyl) acetamide] | 0.1 | – | – | marked affinity | 0.6 | 50
CCCCN(C)C(=O)CSCCCCCc1ccc([C@H]2C[C@]3(C)[C@@H](O)CC[C@H]3[C@@H]3CCc4cc(O)ccc4[C@H]32)cc1 [Example 86] | 0.009 | – | 11.7 | – | – | –
CCCCN(C)C(=S)COCCCCCOc1ccc([C@H]2C[C@]3(C)[C@@H](O)CC[C@H]3[C@@H]3CCc4cc(O)ccc4[C@H]32)cc1 [Example 78, N-butyl-[5-[4-(3,17β-dihydroxy-δ^1,3,5(10)-estratrien-11β-yl)-phenoxy]-pentyloxy]-N-methyl-ethanethioamide] | 0.03 | – | 20 | – | – | –
C#C[C@]1(O)CC[C@H]2[C@@H]3CCc4cc(O)ccc4[C@H]3[C@@H](CCCCCCCCCCC(=O)N(C)C(C)C)C[C@@]21C [Example 55, 3,17β-Dihydroxy-N-Methyl-N-Isopropyl-19-Nor-17α-Δ^1,3,5(10)-Pregnatrien-20-Yn-118-Undecanamide] | 0.01 | – | – | marked affinity | 1.2 | 45
CCCCN(C)C(=O)CCCCCCCOc1ccc([C@H]2C[C@]3(C)[C@@H](O)CC[C@H]3[C@@H]3CCc4cc(O)ccc4[C@H]32)cc1 [Example 46, N-butyl-8-[4-(3,17β-dihydroxy-Δ^1,3,5,(10)-estratrien-11β-yl)-phenoxy]-N-methyl Octanamide] | 0.006 | – | – | marked affinity | 0.3 | 65
CCCCN(C)C(=O)CCCCCC#Cc1ccc([C@H]2C[C@]3(C)[C@@H](O)CC[C@H]3[C@@H]3CCc4cc(O)ccc4[C@H]32)cc1 [Example 35] | 0.04 | – | – | – | 0.13 | 12
CN(CC(F)(F)C(F)(F)C(F)(F)F)C(=O)CCCCCCCOc1ccc([C@H]2C[C@]3(C)[C@@H](O)CC[C@H]3[C@@H]3CCc4cc(O)ccc4[C@H]32)cc1 [Example 82, 8-(4-(δ^1,3,5(10)-estratrien-3,17β-diol-11β-yl)-phenoxy)-N-(2,2,3,3,4,4,4-heptafluorobutyl)-N-methyl-octanamide] | 0.02 | 0 | 23 | – | – | –
CCCCN(C)C(=O)CCCCCCCc1ccc([C@H]2C[C@]3(C)[C@@H](O)CC[C@H]3[C@@H]3CCc4cc(O)ccc4[C@H]32)cc1 [Example 8, N-Butyl-4-[3,17β-dihydroxy-Δ^1,3,5(10)-estratrien-11β-yl]-N-methyl benzene octanamide] | 0.04 | – | – | marked affinity | – | –
CCCCN(C)C(=O)COCCCCCC#Cc1ccc([C@H]2C[C@]3(C)[C@@H](O)CC[C@H]3[C@@H]3CCc4cc(O)ccc4[C@H]32)cc1 [Example 37, 2-((7-(4-(3,17β-dihydroxy-Δ^1,3,5(10)-estratrien-11β-yl)-phenyl)-6-heptynyl.)-oxy)-N-butyl-N-methyl Acetamide] | 0.03 | – | – | marked affinity | 0.6 | 28
CCCCN(C)C(=O)COCCCCCOc1ccc([C@H]2C[C@]3(C)[C@@H](O)CC[C@H]3[C@@H]3CCc4cc(O)ccc4[C@H]32)cc1 [Example 43, N-butyl-[5-[4-(3,17β-dihydroxy-Δ^1,3,5(10)-estratrien-11β-yl)-phenoxy]-pentyloxy]-N-methyl acetamide] | 0.002 | – | – | – | 4.0 | 3.0
CCCCN(C)C(=S)CCCCCCCOc1ccc([C@H]2C[C@]3(C)[C@@H](O)CC[C@H]3[C@@H]3CCc4cc(O)ccc4[C@H]32)cc1 [Example 79, N-butyl-8-(4-(3,17β-dihydroxy-δ^1,3,5(10)-estratrien-11β-yl)-phenoxy)-N-methyloctanethioamide] | 0.035 | – | 16 | – | – | –
